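Each compound was tested at five concentrations against cells in 96-well plates for 48 hours. GI50: concentration for 50% inhibition of growth.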 Active and inactive are the calls of the source. No stated cut-off is given here; in the data, active = GI50 up to about 1.1 µM and inactive = higher. *1 amine or outer side, *2 acyl side, *3 side chain or, on linkers, in order; H or OH if unused. Where a SMILES comes first, the peptide text is derived from it. Bridges are numbered along the chain shown (N, C = ends). [ ]: non-standard residue; d: D form. X36 = CC[C@H](C)[C@@H](N[*:1])[C@@H](O)CC(=O)O[C@H](C(=O)[C@H](C)C(=O)[*:2])C(C)C; NMeY = CN[C@@H](Cc1ccc(O)cc1)C(=O)O
Columns and labels:
Assay in all cases: NCI tumour cell line growth inhibition, 48 h
PC-3 = tested on: PC-3
UO-31 = tested on: UO-31
NCI-H460 = tested on: NCI-H460
Hs-578T = tested on: Hs-578T
KM12 = tested on: KM12
CCRF-CEM = tested on: CCRF-CEM
SF-268 = tested on: SF-268
HT-29 = tested on: HT-29
MOLT-4 = tested on: MOLT-4
ACHN = tested on: ACHN
NCI-H23 = tested on: NCI-H23
TK-10 = tested on: TK-10
LOX IMVI = tested on: LOX IMVI
HOP-62 = tested on: HOP-62
RXF 393 = tested on: RXF 393
SR = tested on: SR
OVCAR-4 = tested on: OVCAR-4
HOP-92 = tested on: HOP-92
UACC-62 = tested on: UACC-62
CAKI-1 = tested on: CAKI-1

Measured: GI50

CCOC(=O)c1nc2ccc(C(F)(F)F)cc2nc1Nc1ccc(OC)cc1
inactive: PC-3 49.7 µM | UO-31 > 100 µM | NCI-H460 41.1 µM | Hs-578T 35.2 µM | KM12 > 100 µM | CCRF-CEM > 100 µM | SF-268 46.2 µM | HT-29 > 100 µM | MOLT-4 > 100 µM | ACHN 55 µM | NCI-H23 49.1 µM | TK-10 > 100 µM | LOX IMVI > 100 µM | HOP-62 24.3 µM | RXF 393 22.1 µM | SR > 100 µM | OVCAR-4 18.6 µM | HOP-92 12 µM | UACC-62 55.7 µM

COc1ccc(/C(Cl)=C(\C=O)c2ccc([N+](=O)[O-])cc2)cc1OC
inactive: CAKI-1 9.08 µM | PC-3 8.71 µM | UO-31 12.2 µM | NCI-H460 9.27 µM | Hs-578T 5.69 µM | KM12 20.4 µM | CCRF-CEM 2.44 µM | SF-268 6.73 µM | HT-29 14.2 µM | MOLT-4 3.05 µM | ACHN 8.83 µM | NCI-H23 4.26 µM | TK-10 13.4 µM | LOX IMVI 2.87 µM | HOP-62 22.7 µM | RXF 393 3.76 µM | SR 3.03 µM | HOP-92 7.28 µM | UACC-62 3.92 µM

C=C1c2nc3ccccc3n2C=C(c2ccc(Cl)cc2)N1c1ccc(OCCN2CCOCC2)cc1
inactive: PC-3 10.5 µM | UO-31 33.4 µM | NCI-H460 5.47 µM | Hs-578T 19.5 µM | KM12 11.4 µM | SF-268 34.7 µM | HT-29 12.2 µM | ACHN 34.9 µM | NCI-H23 28.2 µM | TK-10 35.9 µM | LOX IMVI 11 µM | HOP-62 52.6 µM | RXF 393 32.7 µM | SR 12 µM | OVCAR-4 12.1 µM | HOP-92 50.8 µM | UACC-62 19.9 µM

CCOC(=O)/C=C(/N=P(c1ccccc1)(c1ccccc1)c1ccccc1)C(F)(F)F
inactive: PC-3 > 10 µM | UO-31 > 100 µM | NCI-H460 > 10 µM | Hs-578T > 10 µM | KM12 > 10 µM | CCRF-CEM > 10 µM | SF-268 > 10 µM | HT-29 > 10 µM | MOLT-4 > 10 µM | ACHN > 10 µM | NCI-H23 > 10 µM | TK-10 > 10 µM | LOX IMVI > 10 µM | HOP-62 > 10 µM | RXF 393 > 10 µM | SR > 10 µM | OVCAR-4 > 10 µM | HOP-92 1.44 µM | UACC-62 5.9 µM

CC[C@H](C)[C@H]1NC(=O)[C@@H](N)[C@@H](C)OC(=O)[C@H](Cc2ccc(OC)cc2)N(C)C(=O)[C@@H]2CCCN2C(=O)[C@H](CC(C)C)NC(=O)[C@@H](C)C(=O)[C@H](C(C)C)OC(=O)C[C@@H]1O (H-T[X36]LP[NMeY](Me); ester 1-C)
inactive: PC-3 14.3 µM | UO-31 6.62 µM | NCI-H460 30.3 µM | Hs-578T 12.2 µM | KM12 9.35 µM | CCRF-CEM 22.3 µM | SF-268 49.5 µM | HT-29 3.67 µM | MOLT-4 6.85 µM | ACHN 29.1 µM | NCI-H23 35.4 µM | TK-10 36.7 µM | LOX IMVI 21.6 µM | HOP-62 14.7 µM | RXF 393 8.13 µM | SR 16.3 µM | OVCAR-4 54.5 µM | UACC-62 29.9 µM

C[N+](C)(C)C1(C(=O)[O-])CC1
inactive: PC-3 > 100 µM | NCI-H460 > 100 µM | Hs-578T > 100 µM | CCRF-CEM > 100 µM | SF-268 > 100 µM | HT-29 > 100 µM | MOLT-4 > 100 µM | ACHN > 100 µM | NCI-H23 > 100 µM | TK-10 > 100 µM | LOX IMVI > 100 µM | HOP-62 > 100 µM | RXF 393 > 100 µM | SR > 100 µM | OVCAR-4 > 100 µM | HOP-92 > 100 µM

COC(=O)C1=C([C@H]2COC(C)(C)O2)[C@H]2C[C@@H]1[C@@H]1OC(C)(C)O[C@@H]12
inactive: PC-3 > 100 µM | UO-31 > 100 µM | NCI-H460 > 100 µM | Hs-578T > 100 µM | KM12 > 100 µM | CCRF-CEM > 100 µM | SF-268 > 100 µM | HT-29 > 100 µM | MOLT-4 > 100 µM | ACHN > 100 µM | NCI-H23 > 100 µM | TK-10 > 100 µM | LOX IMVI > 100 µM | HOP-62 > 100 µM | RXF 393 > 100 µM | SR > 100 µM | OVCAR-4 > 100 µM | HOP-92 38.7 µM | UACC-62 > 100 µM

[O-][n+]1onc2c1/C(=N/O)CCC2
inactive: CAKI-1 > 100 µM | PC-3 > 100 µM | UO-31 > 100 µM | NCI-H460 > 100 µM | Hs-578T > 100 µM | KM12 > 100 µM | CCRF-CEM > 100 µM | SF-268 > 100 µM | HT-29 > 100 µM | MOLT-4 > 100 µM | ACHN > 100 µM | NCI-H23 > 100 µM | TK-10 > 100 µM | LOX IMVI > 100 µM | HOP-62 > 100 µM | RXF 393 > 100 µM | SR > 100 µM | OVCAR-4 > 100 µM | UACC-62 > 100 µM

CC(C)=CCC[C@](C)(O[C@@H]1O[C@H](CO)[C@@H](O)[C@H](O)[C@H]1O)[C@H]1CC[C@]2(C)[C@@H]1[C@H](O)C[C@@H]1[C@@]3(C)CC[C@H](O)C(C)(C)[C@@H]3[C@@H](O[C@@H]3O[C@H](CO)[C@@H](O)[C@H](O)[C@H]3O[C@@H]3O[C@@H](C)[C@H](O)[C@@H](O)[C@H]3O)C[C@]12C.CC(C)=CCC[C@](C)(O[C@@H]1O[C@H](CO)[C@@H](O)[C@H](O)[C@H]1O)[C@H]1CC[C@]2(C)[C@@H]1[C@H](O)C[C@@H]1[C@@]3(C)CC[C@H](O)C(C)(C)[C@@H]3[C@@H](O[C@@H]3O[C@H](CO)[C@@H](O)[C@H](O)[C@H]3O[C@@H]3O[C@H](CO)[C@@H](O)[C@H](O)[C@H]3O)C[C@]12C
inactive: CAKI-1 > 75 µM | PC-3 > 75 µM | UO-31 > 75 µM | NCI-H460 7.5 µM | Hs-578T 51.3 µM | KM12 > 75 µM | CCRF-CEM > 75 µM | SF-268 54.3 µM | HT-29 > 75 µM | MOLT-4 > 75 µM | ACHN > 75 µM | NCI-H23 > 75 µM | TK-10 > 75 µM | LOX IMVI > 75 µM | HOP-62 22.9 µM | SR 29.2 µM | OVCAR-4 > 75 µM | HOP-92 > 75 µM | UACC-62 > 75 µM

From ChEMBL document CHEMBL1201862, “PubChem BioAssay data set” (2004)
